Test results: patent US11299485B2, “Thiophene derivative and use thereof” (FUJIMOTO CO., LTD., priority 2018, dated 2022)

Assays:
Format in all cases: cell-based
[1] = test system: Kasumi-7 cells; experiment: Human acute lymphoblastic leukemia cell line Kasumi-7 proliferation suppression test; conditions: 72 h, compound 10 μM, 3 days, WST-8, read-out: cell survival rate (% of control) Kasumi-7
Description: Example 55: Human Acute Lymphoblastic Leukemia Cell Line Kasumi-7 Proliferation Suppression Test
Kasumi-7 cells (NIBIOHN, JCRB1401) were suspended in 20% fetal calf serum (Thermo Fisher Scientific, Inc.)-containing RPMI1640 medium (ATCC, hereinafter abbreviated as medium C), and diluted as appropriate with 0.4% trypan blue solution (Sigma-Aldrich Co. LLC.). The number of viable cells was counted with a hemocytometer (Funakoshi Co., Ltd.). A cell suspension obtained by diluting with medium C such that the value obtained was 1.3×10^5 cells/mL was dispensed into a Falcon 96 well flat bottom plate (Corning Incorporated) at 75 μL/well, and culture was started at 37° C. under 5% CO2 stream. The next day, a solution obtained by diluting 4 mM DMSO solution of the test compound 100-fold with medium C was added by 25 μL to each well (final concentration of test compound 10 μM). 25 μL of a solution obtained by diluting DMSO 100-fold with medium C was added to the control well. After culturing at 37° C. in a 5% CO2 stream for 3 days, the cell proliferation activity was measured according to the instruction manual attached to WST-8 Kit (KISHIDA CHEMICAL Co., Ltd.).

[2] = test system: TNF-α production; experiment: Human TNF-α production suppression test (LPS-stimulated peripheral blood mononuclear cells, ELISA); conditions: PBMC, 24 hr; for inhibition at 10 µg/mL: compound 10 μg/mL, control well = 100, read-out: TNF-α production suppressive rate (%)
Description: Example 50: Human TNF-α Production Suppression Test
Peripheral blood of a healthy adult was collected in a vacuum blood collection tube (Terumo, containing EDTA/2Na), and then diluted two-fold with an equal volume of OTSUKA NORMAL SALINE (Otsuka Pharmaceutical Co., Ltd.). The diluted blood was mixed with Lymphoprep (AXIS-SHIELD) in half the volume of the diluted blood, dispensed into a 15 mL conical tube, and centrifuged at room temperature for 20 min (2,100 rpm). The mononuclear cells accumulated at the interface between Lymphoprep and plasma was transferred to a 50 mL conical tube, diluted with OTSUKA NORMAL SALINE, and the mononuclear cells suspension was centrifuged at room temperature for 10 min (1,150 rpm) and then the supernatant was removed. The mononuclear cells fraction obtained as a precipitate was suspended in an appropriate amount of 10% fetal calf serum (Thermo Fisher Scientific)-containing RPMI1640 medium (Thermo Fisher Scientific, hereinafter abbreviated as medium A), and diluted as appropriate with 0.4% trypan blue solution (Sigma-Aldrich Co. LLC.). The number of viable cells was counted with a hemocytometer (ERMA INC.). It was diluted with medium A such that the value obtained was 5×10^5 cells/mL. On the other hand, 75 μL of medium A, 5 μL of 0.4 mg/mL test compound solution (DMSO solution 10-fold diluted with medium A), and 20 μL of 10 μg/mL lipopolysaccharide (Sigma-Aldrich Co. LLC.) solution (diluted with medium A) were each added in advance to the same well of a Falcon 96-well flat bottom plate (Corning Incorporated), and the above-mentioned cell suspension was dispensed at 0.1 mL/well. 5 μL of DMSO diluted 10-fold with medium A was added to the control well instead of the compound solution. After culturing at 37° C. in a 5% CO2 stream for 24 hr, the culture solution was centrifuged at 4° C., 1,000 rpm for 3 min and the supernatant was recovered. The content of TNF-α in the supernatant was measured using an ELISA kit (Peprotech) according to a conventional method. The amount of TNF-α produced in the well containing the test compound was determined with the amount of TNF-α produced in the control well as 100, and the suppression rate was calculated for each test.

[3] = test system: MM.1S cells; experiment: Human myeloma cell line MM.1S proliferation suppression test; conditions: MM1.S, 72 h, compound 10 μM, 3 days, WST-1 or WST-8, read-out: cell survival rate (% of control) MM.1S
Description: Example 51: Human Myeloma Cell Line MM.1S Proliferation Suppression Test
MM.1S cells (ATCC, CRL-2974) were suspended in 10% fetal calf serum (Thermo Fisher Scientific)-containing RPMI1640 medium (ATCC, hereinafter abbreviated as medium B), and diluted as appropriate with 0.4% trypan blue solution (Sigma-Aldrich Co. LLC.). The number of viable cells was counted with a hemocytometer (ERMA INC.). It was diluted with medium B such that the value obtained was 2×10^5 cells/mL. On the other hand, 50 μL of a solution obtained by diluting 4 mM DMSO solution of the test compound 200-fold with medium B was added to each well of a Falcon 96-well flat bottom plate (Corning Incorporated), and the above-mentioned cell suspension was dispensed at 50 μL/well (final concentration of test compound 10 μM). 50 μL of a solution obtained by diluting DMSO 200-fold with medium B was added to the control well. After culturing at 37° C. in a 5% CO2 stream for 3 days, the cell proliferation activity was measured using WST-1 (DOJINDO LABORATORIES) or WST-8 Kit (KISHIDA CHEMICAL Co., Ltd.) and according to each instruction manual attached thereto.

[4] = test system: Daudi cells; experiment: Human Burkitt lymphoma cell line Daudi proliferation suppression test; conditions: 72 h, compound 10 μM, 3 days, WST-8, read-out: cell survival rate (% of control) Daudi
Description: Example 54: Human Burkitt Lymphoma Cell Line Daudi Proliferation Suppression Test
Daudi cells (National Institutes of Biomedical Innovation, Health and Nutrition (NIBIOHN), JCRB9071) were suspended in medium B, and diluted as appropriate with 0.4% trypan blue solution (Sigma-Aldrich Co. LLC.). The number of viable cells was counted with a hemocytometer (ERMA INC.). A cell suspension obtained by diluting with medium B such that the value obtained was 1.3×10^5 cells/mL was dispensed into a Falcon 96 well flat bottom plate (Corning Incorporated) at 75 μL/well, and culture was started at 37° C. under 5% CO2 stream. The next day, a solution obtained by diluting 4 mM DMSO solution of the test compound 100-fold with medium B was added by 25 μL to each well (final concentration of test compound 10 μM). 25 μL of a solution obtained by diluting DMSO 100-fold with medium B was added to the control well. After culturing at 37° C. in a 5% CO2 stream for 3 days, the cell proliferation activity was measured according to the instruction manual attached to WST-8 Kit (KISHIDA CHEMICAL Co., Ltd.).

Structure (SMILES)	viability at 10 µM [1]	inhibition at 10 µg/mL [2]	viability at 10 µM [3]	viability at 10 µM [4]	inhibition at 3 µg/mL ([2]; suppressive rate at 3 μg/mL)
COc1cc(-c2cn(C3CCC(=O)NC3=O)nn2)cs1 (centres unmarked) [compound 20, 3-[4-(5-methoxythiophen-3-yl)-1H-1,2,3-triazol-1-yl]piperidine-2,6-dione]	53%	87%	35%	55%	–
CCCOc1cscc1-c1cn(C2CCC(=O)NC2=O)nn1 (centres unmarked) [compound 21, 3-[4-(4-propoxythiophen-3-yl)-1H-1,2,3-triazol-1-yl]piperidine-2,6-dione]	79%	30%	75%	86%	–
COc1c(-c2cn(C3CCC(=O)NC3=O)nn2)csc1Cl (centres unmarked) [compound 22, 3-[4-(5-chloro-4-methoxythiophen-3-yl)-1H-1,2,3-triazol-1-yl]piperidine-2,6-dione]	82%	48%	73%	81%	–
COc1c(-c2cn(C3CCC(=O)NC3=O)nn2)csc1Br (centres unmarked) [compound 23, 3-[4-(5-bromo-4-methoxythiophen-3-yl)-1H-1,2,3-triazol-1-yl]piperidine-2,6-dione]	76%	62%	75%	76%	–
CCOc1cc(-c2cn(C3CCC(=O)NC3=O)nn2)cs1 (centres unmarked) [compound 24, 3-[4-(5-ethoxythiophen-3-yl)-1H-1,2,3-triazol-1-yl]piperidine-2,6-dione]	72%	75%	63%	69%	–
CCCCOc1cscc1-c1cn(C2CCC(=O)NC2=O)nn1 (centres unmarked) [compound 25, 3-[4-(4-butoxythiophen-3-yl)-1H-1,2,3-triazol-1-yl]piperidine-2,6-dione]	73%	49%	69%	68%	–
CC(C)Oc1cscc1-c1cn(C2CCC(=O)NC2=O)nn1 (centres unmarked) [compound 26, 3-[4-(4-isopropoxythiophen-3-yl)-1H-1,2,3-triazol-1-yl]piperidine-2,6-dione]	50%	83%	40%	51%	–
O=C1CCC(n2cc(-c3cscc3OC3CCCC3)nn2)C(=O)N1 (centres unmarked) [compound 27, 3-{4-[4-(cyclopentyloxy)thiophen-3-yl]-1H-1,2,3-triazol-1-yl}piperidine-2,6-dione]	83%	39%	82%	70%	–
O=C1CCC(n2cc(-c3cscc3OCC3CC3)nn2)C(=O)N1 (centres unmarked) [compound 28, 3-{4-[4-(cyclopropylmethoxy)thiophen-3-yl]-1H-1,2,3-triazol-1-yl}piperidine-2,6-dione]	75%	37%	68%	78%	–
O=C1CCC(n2cc(-c3cscc3OCC3CCCC3)nn2)C(=O)N1 (centres unmarked) [compound 29, 3-{4-[4-(cyclopentylmethoxy)thiophen-3-yl]-1H-1,2,3-triazol-1-yl}piperidine-2,6-dione]	84%	57%	89%	79%	–
O=C1CCC(n2cc(-c3cscc3OCC3CCCCC3)nn2)C(=O)N1 (centres unmarked) [compound 30, 3-{4-[4-(cyclohexylmethoxy)thiophen-3-yl]-1H-1,2,3-triazol-1-yl}piperidine-2,6-dione]	62%	79%	59%	76%	–
COc1ccc(COc2cscc2-c2cn(C3CCC(=O)NC3=O)nn2)cc1 (centres unmarked) [compound 31, 3-{4-[4-(4-methoxybenzyloxy)thiophen-3-yl]-1H-1,2,3-triazol-1-yl}piperidine-2,6-dione]	43%	–	27%	39%	82%
O=C1CCC(n2cc(-c3cscc3OCc3ccccc3)nn2)C(=O)N1 (centres unmarked) [compound 32, 3-{4-[4-(benzyloxy)thiophen-3-yl]-1H-1,2,3-triazol-1-yl}piperidine-2,6-dione]	36%	100%	27%	23%	–
O=C1CCC(n2cc(-c3cscc3OCc3ccncc3)nn2)C(=O)N1 (centres unmarked) [compound 33, 3-{4-[4-(pyridin-4-ylmethoxy)thiophen-3-yl]-1H-1,2,3-triazol-1-yl}piperidine-2,6-dione]	38%	100%	49%	27%	–
O=C1CCC(n2cc(-c3cscc3OCc3ccccn3)nn2)C(=O)N1 (centres unmarked) [compound 34, 3-{4-[4-(pyridin-2-ylmethoxy)thiophen-3-yl]-1H-1,2,3-triazol-1-yl}piperidine-2,6-dione]	45%	97%	50%	48%	–
O=C1CCC(n2cc(-c3cscc3OCc3cccnc3)nn2)C(=O)N1 (centres unmarked) [compound 35, 3-{4-[4-(pyridin-3-ylmethoxy)thiophen-3-yl]-1H-1,2,3-triazol-1-yl}piperidine-2,6-dione]	53%	70%	55%	67%	–
O=C1CCC(n2cc(-c3cscc3OCc3ccc(CN4CCOCC4)cc3)nn2)C(=O)N1 (centres unmarked) [compound 36, 3-(4-{4-[4-(morpholinomethyl)benzyloxy]thiophen-3-yl}-1H-1,2,3-triazol-1-yl)piperidine-2,6-dione]	19%	98%	16%	6%	–
